Measurements published in patent US20240269145A1, “USE OF INDOLE COMPOUND AS INHIBITORS OF FERROPTOSIS” (MITOIMMUNE THERAPEUTICS INC., priority 2023, published 2024).

Experiments:
Assay in all cases: Cell death protection, LDH release after RSL3
Format in all cases: cell-based
[1] = tested on: ARPE-19; details: Homo sapiens, ARPE-19, RSL3 0.3 μM, 24 hours
Protocol: (§1) To confirm the protective effect on cardiac cells, adrenal medulla cells, renal fibroblasts, retinal epithelial cells, lung epithelial cells, renal proximal tubule epithelial cells, hippocampal neurons, and fibroblasts, 4×10^3 to 1.2×10^4 cells of each cell type were dispensed into 96-well plates and cultured for 18 to 24 hours. Each well was treated with the example compound, which was diluted so that the final concentration became 0.001, 0.003, 0.01, 0.03, 0.1, 0.3, 1, 3, and 10 μM, and culture was performed for 15 to 20 minutes. […] To confirm the cell protecting effect of the example compounds, a cytotoxicity LDH assay kit [Dojindo; CK12] was used to measure the level of extracellular secretion of lactate dehydrogenase (LDH). Briefly, at the time point when the 24-hour treatment of each cell type with RSL3 ended, 70 μL of each supernatant from cell culture medium was taken and transferred to a new 96-well plate. After adding 70 μL/well (the same amount as the sample) of the assay buffer included in the kit, the resulting mixture was wrapped with foil and allowed to react at room temperature for 15 to 20 minutes. After observing the color change of the sample, 35 μL/well of a stop solution was added, and the absorbance value at 490 nm was measured using an iD3 spectrophotometer to calculate the EC50 value.
(§2) Table 3. Effect of protecting cardiac cells, adrenal medulla cells, renal fibroblasts, retinal epithelial cells, lung epithelial cells, renal proximal tubule epithelial cells, hippocampal neurons, and fibroblasts against cell death induced by RSL3.

[2] = tested on: H9C2; details: Rattus norvegicus, H9C2, RSL3 0.5 μM, 24 hours
Protocol: as §1, §2

[3] = tested on: HK-2; details: Homo sapiens, HK-2, RSL3 0.3 μM, 24 hours
Protocol: as §1, §2

[4] = tested on: HT-22; details: Mus musculus, HT-22, RSL3 0.3 μM, 24 hours
Protocol: as §1, §2

[5] = tested on: MLE-12; details: MLE12, MLE-12, RSL3 1 μM, 24 hours
Protocol: as §1, §2

[6] = tested on: NIH/3T3; details: Mus musculus, NIH3T3, NIH/3T3, RSL3 3 μM, 24 hours
Protocol: as §1, §2

[7] = tested on: NRK-49F; details: Rattus norvegicus, RSL3 3 μM, 24 hours
Protocol: as §1, §2

[8] = tested on: PC-12; details: Rattus norvegicus, PC-12, RSL3 0.3 μM, 24 hours
Protocol: as §1, §2

SMILES: CCOC(=O)c1cc(NC2CCCC2)c2[nH]c(-c3ccccc3)cc2c1 [Example 2, ethyl 7-(cyclopentylamino)-2-phenyl-1H-indole-5-carboxylate]
- EC50 [1]: ≤ 0.03 µM
- EC50 [2]: ≤ 0.03 µM
- EC50 [3]: ≤ 0.03 µM
- EC50 [4]: ≤ 0.03 µM
- EC50 [5]: ≤ 0.03 µM
- EC50 [6]: ≤ 0.03 µM
- EC50 [7]: ≤ 0.03 µM
- EC50 [8]: ≤ 0.03 µM

SMILES: O=S1(=O)CCN(Cc2cc(NCC3CCOCC3)c3[nH]c(-c4ccccc4)cc3c2)CC1 [Example 6, 4-((2-phenyl-7-(((tetrahydro-2H-pyran-4-yl)methyl)amino)-1H-indol-5-yl)methyl)thiomorpholine 1,1-dioxide]
- EC50 [1]: ≤ 0.03 µM
- EC50 [2]: ≤ 0.03 µM
- EC50 [3]: ≤ 0.03 µM
- EC50 [4]: 0.03 to 0.1 µM
- EC50 [5]: ≤ 0.03 µM
- EC50 [6]: 0.03 to 0.1 µM
- EC50 [7]: ≤ 0.03 µM
- EC50 [8]: 0.03 to 0.1 µM

SMILES: CS(=O)(=O)N1CCC(Nc2cc(CN3CCS(=O)(=O)CC3)cc3cc(-c4ccccc4)[nH]c23)CC1 [Example 22, 4-((7-((1-(methylsulfonyl)piperidin-4-yl)amino)-2-phenyl-1H-indole-5-yl)methyl)thiomorpholine 1,1-dioxide]
- EC50 [1]: ≤ 0.03 µM
- EC50 [2]: 0.03 to 0.1 µM
- EC50 [3]: 0.03 to 0.1 µM
- EC50 [4]: 0.03 to 0.1 µM
- EC50 [5]: ≤ 0.03 µM
- EC50 [6]: 0.03 to 0.1 µM
- EC50 [7]: 0.03 to 0.1 µM
- EC50 [8]: 0.03 to 0.1 µM

SMILES: Cc1cc(NC2CCCC2)c2[nH]c(-c3ccccc3)cc2c1 [Example 33, N-cyclopentyl-5-methyl-2-phenyl-1H-indole-7-amine]
- EC50 [1]: ≤ 0.03 µM
- EC50 [2]: ≤ 0.03 µM
- EC50 [3]: ≤ 0.03 µM
- EC50 [4]: ≤ 0.03 µM
- EC50 [5]: ≤ 0.03 µM
- EC50 [6]: ≤ 0.03 µM
- EC50 [7]: ≤ 0.03 µM
- EC50 [8]: 0.03 to 0.1 µM
